Several values for one entry are separate records, joined by “and”; a condition that tells them apart may be missing. Identical values can stand only once.
Tests used:
[1] = tested on: phospho-ERK; assay: ERK and phospho-ERK immunoblot in brains of CHI mice; assay type: in vivo, mouse; settings: 2 hrs after CHI
Description: ERK and phospho-ERK were determined in 30 μg of brain extract proteins by immunoblotting, ECL, and densitometry (Paz et al., 2000). ERK immunoblots were incubated with 1:2000 rabbit anti-ERK1/2 Ab (Santa-Cruz) and then with 1:1000 peroxidase-goat anti rabbit IgG. Phospho-ERK immunoblots were incubated with 1:10,000 mouse anti-phospho-ERK Ab (Sigma) and then with 1:10,000 peroxidase-goat anti-mouse IgG.

[2] = tested on: mice subjected to closed head injury (CHI); assay: Neurobehavioral evaluation (neurological severity score, NSS) of CHI mice; assay type: in vivo, mouse
Description: The neurological severity score (NSS) is a tool for assessing an animal's functional status. It is based on the ability of the animal to perform different motor and behavioral tasks representing motor ability, balancing, and alertness (Beni-Adani et al., 2001). Scores range from zero, achieved by healthy uninjured animals, to a maximum of 10, indicating severe neurological dysfunction, with failure of all tasks. The NSS obtained 1 hr after trauma reflects the initial severity of injury and is inversely correlated with neurological outcome. Animals were evaluated 1 hour after CHI, and again at 24 and 48 hrs and at 5 and 7 days. To assess the effect of FTS on neurological recovery, mice were randomly assigned to treatment with either FTS or vehicle (n=10 per group), administered immediately after the initial NSS evaluation. Each animal was assessed by an observer who was blinded to the treatment it had received. The extent of recovery (ΔNSS) was calculated as the difference between the NSS at 1 hr and at any subsequent time point. Thus, a higher ΔNSS reflects better recovery. This parameter therefore serves as a tool for evaluation of drug effects.

[3] = tested on: Ras-GTP
Description: The study was approved by the Institutional Animal Care Committee of Hadassah Medical Center and the Hebrew University. Sixty male C57bl mice weighing 25 to 35 g were used. CHI was induced under ether anesthesia, as previously described (Chen et al., 1996) and modified (Yatsiv et al., 2002). Briefly, after induction of ether anesthesia the skull was exposed by a midline longitudinal incision. A tipped Teflon cone was placed in the mid-coronal plane above the left anterior frontal area, 1 mm lateral to the midline. A weight (74 g) was dropped onto the cone (from a height of 15 cm), resulting in a focal injury. After trauma, animals received supporting oxygenation with 100% O2 for no longer than 2 min and were then returned to their cages. Sham-injured mice were anesthetized and their skin was incised, but they were not subjected to CHI.
In the first experiment mice were sacrificed 10, 30, or 120 min after sham-injury or CHI to assess levels of Ras=GTP and phospho=ERK. In the second set of experiments, the animals received FTS (5 mg/kg i.p.) or vehicle, 1 hr after CHI and sham-injured mice received the vehicle (n=4 per group). The mice were sacrificed 2 or 24 hrs after CHI, their brains were removed, and cortical tissue samples adjacent or contra-lateral to the site of injury were homogenized in homogenization buffer containing protease inhibitors and 0.5% Triton X100 as described (Haklai et al., 1998). Debris was removed by centrifugation and protein in the extract was determined with the aid of the Bio-Rad protein assay (Bio-Rad Laboratories, GmbH). Total Ras protein was determined by Western immunoblotting of 30 μg of protein with 1:2500 pan-Ras Ab (Oncogene Research Products, followed by 1:7500 peroxidase goat anti-mouse IgG (Haklai et al., 1998). For determination of GTP-bound Ras in protein samples (1 mg), Ras-GTP was pulled down by glutathione-S-transferase fused to the Ras-binding domain of Raf (GST-RBD) which binds Ras-GTP only. The GST-RBD-Ras-GTP was pulled down with glutathione-agarose beads, and Ras was then determined by immunoblotting with pan-Ras Ab as described above, followed by enhanced chemiluminescence (ECL; Amersham Pharmacia Biotech, Piscataway, N.J., U.S.A) (Paz et al., 2000). The bands were quantified by densitometry with Image Master VDS-CL (Amersham Biotech) using TINA 2.0 software (Ray Tests).

[4] = tested on: rats subjected to closed head injury (CHI); assay: Neuroprotection, rat CHI model (NSS); assay type: in vivo
Description: Sabra (strain of the Hebrew University) rats (200-220 gr) were used. A weight (200 g) was dropped on the cone fixed on the exposed skull at the site (frontal left cortex) designated for injury (from a height of 20 cm), resulting in a focal injury. A maximal Neurological Severity Score (NSS) of 17 indicates severe neurological dysfunction, with failure of all tasks, whereas a score of zero is achieved by healthy uninjured animals. The NSS at 1 h after trauma reflects the initial severity of injury and is inversely correlated with neurological outcome. […] To assess the effect of FTS on neurological recovery, rats were randomly assigned to either vehicle or FTS treatment, given immediately after the initial NSS evaluation (at 1 hr after CHI). These assessments were performed by an observer blinded to the kind of treatment the animals have received. The extent of recovery (ΔNSS) was calculated as the difference between NSS at 1 hr and that at any later time point: ΔNSS (at time t)=NSS (1 h)−NSS (t).
Thus, the greater ΔNSS reflects greater recovery, and this parameter serves as a tool for evaluation of drug effects.

[5] = 2 hrs after CHI, drug i.p. 1 hr after CHI, FTS 5 mg/kg, MK-801 0.5 mg/kg or 1 mg/kg, mean±SD
[6] = FTS 5 mg/kg bw ip 1 h after CHI, mean ± SD of 7 rats

SMILES: CC(C)=CCC/C(C)=C/CC/C(C)=C/CSc1ccccc1C(=O)O [FTS, farnesyl-thiosalicylic acid]
- effect on amounts of total ERK [1]: Neither inhibitor altered
- inhibition (reduction) of phospho-ERK, right (contra-lateral) hemisphere ([1]; drug i.p. 1 hr after CHI, FTS 5 mg/kg, MK-801 0.5 mg/kg or 1 mg/kg): 73.2±8.3% and 73±8%
- median recovery after seven days (ΔNSS) ([2]; mice processed for autoradiography and histology (4 FTS-treated), vehicle 0, p<0.05): 2
- mean ΔNSS on day 7 after injury ([2]; mice, FTS 5 mg/kg i.p. 1 hr after CHI, n=10, controls 1.7): 4.2
- NSS 1 hour after injury ([2]; mice, baseline before treatment, FTS-treatment group, n=10, mean±SD, scale 0-10): 6.7±0.3
- reduction of CHI-induced neurological deficits / improvement of neurological status (extent of recovery) ([2]; mice, single dose FTS 5 mg/kg, up to 7 days after CHI, P<0.0001): 60%
- inhibition of the CHI-induced increase in Ras-GTP, left (contused) hemisphere [3, 5]: 81.7±10.0% and 75.2±6.8% and 82% and 82±10%
- inhibition of the CHI-induced increase in Ras-GTP, right (contra-lateral) hemisphere [3, 5]: 70.4±12.0% and 67.2±7.1% and 70±12%
- inhibition of Ras-GTP, range over both hemispheres ([3]; CHI mice, 2 hrs after CHI): 70-82%
- effect on the total amount of Ras in the brain ([3]; FTS 5 mg/kg i.p. 1 hr after CHI): no effect
- effect on Ras-GTP levels 24 hrs after CHI ([3]; FTS 5 mg/kg i.p. 1 hr after CHI, assessed 24 hrs after CHI): almost no effect
- Neurological Severity Score (NSS) 1 h ([4]; 1 h after CHI, before treatment (baseline), maximal score 17, mean ± SD of 7 rats): 9.71 ± 1.97
- ΔNSS = NSS (1 h) − NSS (time), 24 h [4, 6]: 1.86 ± 1.34
- ΔNSS = NSS (1 h) − NSS (time), 3 d [4, 6]: 3.00 ± 1.29
- ΔNSS = NSS (1 h) − NSS (time), 7 d ([4]; FTS 5 mg/kg bw ip 1 h after CHI, mean ± SD of 7 rats, p = 0.019 vs control): 5.14 ± 1.07
